Experimental data from ChEMBL document CHEMBL5696441 (Nat Chem Biol, 2011).
Activity calls are given as the source filed them. The rule behind the calls is not given here.

Tested on: THP-1
Test: Inhibition of ERK in human THP-1 cells assessed as CREB phosphorylation at Ser133 level at 4 uM preincubated for 30 mins in the presence of PMA stimulation for 1 hrs by western blot analysis
Format: cell-based

## C[S+]([O-])c1ccc(-c2nc(-c3ccc(F)cc3)c(-c3ccncc3)[nH]2)cc1 (stereo unspecified)
  inhibition: Active
